This passage reports IC50 results from patent US7803793B2, “Heterocyclic derived metalloprotease inhibitors” (Janssen Pharmaceutica NV, priority 2006, dated 2010).

Where two headings read alike, the source gives them in different places.

The target of one test is T1, MMP-2 (Homo sapiens, UniProt P08253).
T1 construct: Human MMP-2 full length (aa 1-660)
T1 sequence (P08253 30-660): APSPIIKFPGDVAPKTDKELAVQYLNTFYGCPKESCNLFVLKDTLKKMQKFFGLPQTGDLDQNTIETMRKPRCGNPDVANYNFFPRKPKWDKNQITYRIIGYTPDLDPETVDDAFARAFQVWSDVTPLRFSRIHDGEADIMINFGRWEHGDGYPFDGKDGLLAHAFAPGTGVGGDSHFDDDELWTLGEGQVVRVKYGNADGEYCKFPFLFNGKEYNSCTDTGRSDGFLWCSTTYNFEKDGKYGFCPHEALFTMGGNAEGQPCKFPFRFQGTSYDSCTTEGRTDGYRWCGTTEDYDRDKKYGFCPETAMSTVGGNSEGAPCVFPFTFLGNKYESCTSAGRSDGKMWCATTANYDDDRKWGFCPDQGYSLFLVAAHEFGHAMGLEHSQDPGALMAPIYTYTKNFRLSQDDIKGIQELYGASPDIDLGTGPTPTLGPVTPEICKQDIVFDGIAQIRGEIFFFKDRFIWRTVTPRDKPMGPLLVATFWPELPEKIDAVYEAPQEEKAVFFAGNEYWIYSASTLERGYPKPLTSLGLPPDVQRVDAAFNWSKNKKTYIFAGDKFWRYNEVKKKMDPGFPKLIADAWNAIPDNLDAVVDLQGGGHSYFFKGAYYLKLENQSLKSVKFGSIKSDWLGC
In words: MMP enzymatic assay (Trupoint peptide), MMP-2. Type of test: biochemical. Here is the method: [formula] • 1) Prepare appropriate 1×MMP assay buffer from 10× stock. […] Need to prepare a 2.5× concentration stock (2.5 μM) to achieve this concentration in 50 μl. Dilute compound to 2.5 mM in 100% DMSO (a 1:40 dilution), then dilute the 2.5 mM compound to 2.5 μM (1:1000) into 1× assay buffer. Make 1 ml 2.5 μM compound in assay buffer. • 4) Fill the rows B through P of a 384-well plate with assay buffer+0.1% DMSO. • 5) Add 30 ul of the 2.5 μM compound in assay buffer to the top row of the plate, doing each compound in triplicate. The plate setup should be as follows, using GM6001 as plate reference compound:
• 6) Serially dilute 10 μl down the plate to achieve 1:3 dilutions in subsequent wells. After each dilution, change pipette tips to avoid compound carryover. Discard the remaining 10 μl after diluting into the final row. • 7) Prepare enzyme dilutions at 2.5× of final desired concentration (see below). Will need 10 ml enzyme solution per plate. Add enzyme to plate, 20 μl per well. Incubate 1 hr.
• 8) Dilute the 500 μM Trupoint peptide 1:1000 into assay buffer to achieve a 5× working stock of 500 nM. Prepare 5 ml total per plate. Add 10 ul of substrate to each well to achieve a final concentration of 100 nM in well. Also prepare background subtraction wells by adding 10 μl 5× substrate to 40 μl assay buffer per well, typically do ˜32 wells. • 9) Incubate assay at room temperature for 15 min. Read in plate reader.
(§1) Analysis Specifications • Calculate average background value from substrate/assay buffer wells • Subtract this from entire plate • Calculate average of DMSO wells for each enzyme. This is the positive control, 100% value. • For each well, calculate percent of control by dividing well value by the average DMSO value obtained above. • Paste percent of control values into Graphpad Prism 4.0.

The next test concerns the target T2, MMP-9 (Homo sapiens, UniProt P14780).
T2 construct: Human MMP-9 catalytic domain (aa 107-446)
In words: MMP enzymatic assay (Trupoint peptide), MMP-9. Type of test: biochemical. The procedure:
[formula] • 1) Prepare appropriate 1×MMP assay buffer from 10× stock. […] The plate setup should be as follows, using GM6001 as plate reference compound:
• 6) Serially dilute 10 μl down the plate to achieve 1:3 dilutions in subsequent wells. After each dilution, change pipette tips to avoid compound carryover. […] Will need 10 ml enzyme solution per plate. Add enzyme to plate, 20 μl per well. Incubate 1 hr.
Prepare 5 ml total per plate. Add 10 ul of substrate to each well to achieve a final concentration of 100 nM in well. […] Read in plate reader.
as §1

T2 sequence (P14780 107-446): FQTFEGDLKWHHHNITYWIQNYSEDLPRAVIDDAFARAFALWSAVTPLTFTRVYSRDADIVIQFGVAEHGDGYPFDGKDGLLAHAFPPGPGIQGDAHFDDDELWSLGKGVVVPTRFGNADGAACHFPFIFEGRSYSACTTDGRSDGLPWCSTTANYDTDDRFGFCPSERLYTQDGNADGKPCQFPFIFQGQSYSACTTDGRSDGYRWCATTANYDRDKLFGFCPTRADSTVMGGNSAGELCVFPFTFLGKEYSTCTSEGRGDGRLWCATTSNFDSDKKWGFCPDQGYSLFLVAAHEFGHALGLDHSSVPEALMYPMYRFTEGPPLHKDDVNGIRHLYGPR

As usually defined, the IC50 is the concentration at which inhibition is half-maximal. Consider `Cc1ccc(Oc2ccc(N(Cc3cccn(O)c3=O)S(C)(=O)=O)cc2)cc1` [Compound 42, N-(1-Hydroxy-2-oxo-1,2-dihydro-pyridin-3-ylmethyl)-N-(4-p-tolyloxy-phenyl)-methanesulfonamide], for which the IC50 at MMP-2 came out at 0.208 µM; against MMP-9, 0.0469 µM.
Consider `COc1ccc(-c2ccc(S(=O)(=O)Cn3cccc(O)c3=O)s2)cc1` [Compound 64, 3-Hydroxy-1-[5-(4-methoxy-phenyl)-thiophene-2-sulfonylmethyl]-1H-pyridin-2-one], for which the IC50 amounted to 0.185 µM on MMP-2 (read-out: MMP-2 nM IC50) and 0.522 µM on MMP-9.
In the case of `Cc1ccc(Oc2ccc(N(Cc3cc(-c4ccccc4)cn(O)c3=O)S(C)(=O)=O)cc2)cc1` [Compound 52, N-(1-Hydroxy-2-oxo-5-phenyl-1,2-dihydro-pyridin-3-ylmethyl)-N-(4-p-tolyloxy-phenyl)-methanesulfonamide], the IC50 at MMP-2 came to 0.914 µM; against MMP-9 it was 0.317 µM.
In the same order, the values of `O=C1C(S(=O)(=O)c2ccc(Br)cc2)CCCCN1O` (stereo not shown) [Compound 81, 3-(4-Bromo-benzenesulfonyl)-1-hydroxy-azepan-2-one] are over 1 µM and over 1 µM.
In the case of `O=C1[C@H](NS(=O)(=O)c2ccc(N3CCN(c4ccccc4)CC3)cc2)CC=CCN1O` [Compound 10, N-(1-Hydroxy-2-oxo-2,3,4,7-tetrahydro-1H-azepin-3-(R)-yl)-4-(4-phenyl-piperazin-1-yl)-benzenesulfonamide], the IC50 against MMP-2 and against MMP-9 was over 1 µM each time.
As for `CC1CN(CC2=CC[C@@H](NS(=O)(=O)c3ccc(Oc4ccc(Cl)cc4)cc3)C(=O)N(O)C2)CC(C)O1` (stereo partly drawn) [Compound 21, (R)-4-(4-Chloro-phenoxy)-N-[6-(2,6-dimethyl-morpholin-4-ylmethyl)-1-hydroxy-2-oxo-2,3,4,7-tetrahydro-1H-azepin-3-yl]-benzenesulfonamide], the IC50 turned out to be 0.00125 µM against MMP-2 and 0.00089 µM at MMP-9.
For `COc1ccc(Oc2ccc(S(=O)(=O)N(C)c3cccn(O)c3=O)cc2)cc1` [Compound 29, N-(1-Hydroxy-2-oxo-1,2-dihydro-pyridin-3-yl)-4-(4-methoxy-phenoxy)-N-methyl-benzenesulfonamide], the IC50 on MMP-2 (read-out: MMP-2 nM IC50) worked out at 0.0056 µM; against MMP-9 it was 0.00087 µM.
Consider `O=C1C(CS(=O)(=O)c2ccc(Oc3ccccc3)cc2)NCCCN1O` (stereo not shown) [Compound 94], for which the values for the IC50 at MMP-2 and against MMP-9 were 0.0368 µM and 0.0211 µM, respectively.
In the case of `O=c1c(N(CCN2CCOCC2)S(=O)(=O)c2ccc(Oc3ccc(Cl)cc3)cc2)cccn1O` [Compound 87, 4-(4-Chloro-phenoxy)-N-(1-hydroxy-2-oxo-1,2-dihydro-pyridin-3-yl)-N-(2-morpholin-4-yl-ethyl)-benzenesulfonamide], the IC50 at MMP-2 (read-out: MMP-2 nM IC50) stood at 0.005 µM; against MMP-9, 0.0042 µM.
For the molecule `CS(=O)(=O)N(Cc1cccn(O)c1=O)c1ccc(Oc2ccc(OC(F)(F)F)cc2)cc1` [Compound 54, N-(1-Hydroxy-2-oxo-1,2-dihydro-pyridin-3-ylmethyl)-N-[4-(4-trifluoro-methoxy-phenoxy)-phenyl]-methanesulfonamide], the IC50 on MMP-2 worked out at 0.466 µM; on MMP-9 it was 0.0111 µM.
In the case of `COc1ccc(-c2ccc(S(=O)(=O)N[C@@H]3CC=CCN(O)C3=O)s2)cc1` [Compound 17, 5-(4-Methoxy-phenyl)-thiophene-2-sulfonic acid (1-hydroxy-2-oxo-2,3,4,7-tetrahydro-1H-azepin-3-(R)-yl)-amide], the IC50 was determined as 0.0039 µM at MMP-2 and 0.0107 µM on MMP-9.
Turning to `O=C1[C@H](NS(=O)(=O)c2ccc(Oc3ccncc3)cc2)CC=CCN1O` [Compound 6, N-(1-Hydroxy-2-oxo-2,3,4,7-tetrahydro-1H-azepin-3-(R)-yl)-4-(pyridin-4-yloxy)-benzenesulfonamide], the results for the IC50 against MMP-2 and against MMP-9 were 0.00267 µM and 0.0159 µM, respectively.
As to `Cc1ccn(O)c(=O)c1N(C)S(=O)(=O)c1ccc(Oc2ccc(Cl)cc2)cc1` [Compound 31, 4-(4-Chloro-phenoxy)-N-(1-hydroxy-4-methyl-2-oxo-1,2-dihydro-pyridin-3-yl)-N-methyl-benzenesulfonamide], at MMP-2 (read-out: MMP-2 nM IC50), the IC50 is 0.0662 µM.
Consider `O=c1c(O)cccn1CS(=O)(=O)c1ccc(Br)s1` [Compound 63, 1-(5-Bromo-thiophene-2-sulfonylmethyl)-3-hydroxy-1H-pyridin-2-one], for which the results for the half-maximal inhibitory concentration (IC50) against MMP-2 and against MMP-9 were over 1 µM and 0.668 µM, respectively.
For the molecule `COc1ccc(Oc2ccc(S(=O)(=O)Cn3cccc(O)c3=O)cc2)cc1` [Compound 66, 3-Hydroxy-1-[4-(4-methoxy-phenoxy)-benzenesulfonylmethyl]-1H-pyridin-2-one], the IC50 on MMP-2 (read-out: MMP-2 nM IC50) came to 0.0845 µM; against MMP-9, 0.0561 µM.
On to `O=C1[C@H](NS(=O)(=O)c2ccc(Br)s2)CC=CCN1O` [Compound 16, 5-Bromo-thiophene-2-sulfonic acid (1-hydroxy-2-oxo-2,3,4,7-tetrahydro-1H-azepin-3-(R)-yl)-amide], for which the IC50 is 0.043 µM on MMP-2 and 0.0284 µM against MMP-9.
Turning to `COc1ccc(Oc2ccc(N(Cc3cccn(O)c3=O)S(C)(=O)=O)cc2)cc1` [Compound 53, N-(1-Hydroxy-2-oxo-1,2-dihydro-pyridin-3-ylmethyl)-N-[4-(4-methoxy-phenoxy)-phenyl]-methanesulfonamide], the IC50 against MMP-2 turned out to be 0.184 µM; on MMP-9 it was 0.0147 µM.
Take `O=C1C(S(=O)(=O)c2ccc(-c3ccc(F)cc3)cc2)CCCCN1O` (stereo not shown) [Compound 95]: the IC50 was determined as 0.584 µM on MMP-2 and 1.19 µM at MMP-9.
`CN1CCN(CCN(c2cccn(O)c2=O)S(=O)(=O)c2ccc(Oc3ccc(Cl)cc3)cc2)CC1` [Compound 99]: the IC50 on MMP-2 (read-out: MMP-2 nM IC50) was 0.0017 µM; against MMP-9 it was 0.0013 µM.
Consider `Cc1ccc(-c2ccc(S(=O)(=O)N[C@@H]3CC=CCN(O)C3=O)s2)cc1` [Compound 90], for which the IC50 turned out to be 0.0042 µM against MMP-2 and 0.0086 µM against MMP-9.
For `Cc1ccc(Oc2ccc(S(=O)(=O)N(CCN3CCOCC3)c3cccn(O)c3=O)cc2)cc1` [Compound 34, N-(1-Hydroxy-2-oxo-1,2-dihydro-pyridin-3-yl)-N-(2-morpholin-4-yl-ethyl)-4-p-tolyloxy-benzenesulfonamide], in that order: 0.0035 µM and 0.00241 µM.
`COc1ccc(Oc2ccc(S(=O)(=O)C3CCCN(O)C3=O)cc2)cc1` (stereo not shown) [Compound 72, 1-Hydroxy-3-[4-(4-methoxy-phenoxy)-benzenesulfonyl]-piperidin-2-one]: the IC50 on MMP-2 (read-out: MMP-2 nM IC50) stood at 0.167 µM; at MMP-9, 0.0879 µM.
At MMP-9, `O=C1[C@H](NS(=O)(=O)c2ccc(Oc3ccc(Cl)cc3)cc2)CCCN1O` [Compound 57, (R)-4-(4-Chloro-phenoxy)-N-(1-hydroxy-2-oxo-piperidin-3-yl)-benzene-sulfonamide] displayed an IC50 of 0.0579 µM.
For the molecule `CN(c1cccn(O)c1=O)S(=O)(=O)c1ccc(Oc2ccc(C(F)(F)F)cc2)cc1` [Compound 30, N-(1-Hydroxy-2-oxo-1,2-dihydro-pyridin-3-yl)-N-methyl-4-(4-trifluoromethyl-phenoxy)-benzenesulfonamide], at MMP-9, the IC50 was determined as 0.0327 µM.
On to `CN(c1cc(Br)cn(O)c1=O)S(=O)(=O)c1ccc(Oc2ccc(Cl)cc2)cc1` [Compound 32, N-(5-Bromo-1-hydroxy-2-oxo-1,2-dihydro-pyridin-3-yl)-4-(4-chloro-phenoxy)-N-methyl-benzenesulfonamide], for which, on MMP-2 (read-out: MMP-2 nM IC50), the IC50 is 0.662 µM.
